{"source": "paper PMC9861386", "about": "“N-Heterocyclic Carbene-Iridium Complexes as Photosensitizers for In Vitro Photodynamic Therapy to Trigger Non-Apoptotic Cell Death in Cancer Cells” (Molecules, 2023)", "key": {"[1]": {"test_system": "MCF7/FasR breast cancer cells", "assay": "MTT cell viability, 72 h, dark or 458 nm irradiation", "format": "cell-based, human", "settings": "for GI50: 72 h, MTT", "description": "(§1) For all biology experiments, the compounds were solubilized in DMSO to reach a final fixed concentration equal to 0.1% v/v to avoid cytotoxicity caused by DMSO [89]. The results are normalized to controls (0.1% v/v DMSO). Depending on the cell type, approximatively 1000 to 10,000 cells/cm^2 were seeded in 48-well plates for MTT, ATP and GSH assays and 60 mm Petri dishes for Western blots. Cells were allowed to attach overnight and then incubated for 4 h with the different complexes (in the dark), then irradiated for 10 min, followed by an incubation in the dark up to 72 h.\n(§2) Irradiation was conducted using an in-house device: a series of blue light LEDs selected according to the absorption spectra of the compounds at a 458 nm wavelength with an emitted power of 9.6 watts. The absorbed energy, or irradiance, was measured at 458 nm with a Thorlabs Optical Power Meter PM100A at 5 and 10 cm distance between the cell layer and the light source and expressed as mW/cm^2.\n(§3) A tetrazolium-based MTT reagent (3-(4,5-dimethylthiazol-2-yl)-2,5-diphenyltetrazolium bromide) was used to determine cell viability, as previously described. After 72 h of treatment at 37 °C and 5% CO2, cells were incubated with 25 μL MTT solution (5 mg/mL; Sigma-Aldrich) for 4 h. After solubilization with 500 μL of lysis buffer (DMSO), formazan was quantified by spectrophotometry with a microplate reader at 570 nm absorbance (ClarioSTAR, BMG LabTech, Champigny-sur-Marne, France). GI50 values corresponding to the concentration that caused 50% inhibition of cell proliferation were calculated from dose–response curves obtained by nonlinear regression analysis. All results were calculated from data obtained in at least three independent experiments."}, "A549 lung cancer cells": {"test_system": "A549 lung cancer cells", "assay": "MTT cell viability, 72 h, dark or 458 nm irradiation", "format": "cell-based, human", "settings": "for GI50: 72 h, MTT", "description": "as §1, §2, §3"}, "T24 bladder cancer cells": {"test_system": "T24 bladder cancer cells", "assay": "MTT cell viability, 72 h, dark or 458 nm irradiation", "format": "cell-based, human", "settings": "for GI50: 72 h, MTT", "description": "as §1, §2, §3"}, "[2]": {"test_system": "PC-3 prostate cancer cells", "assay": "MTT cell viability, 72 h, dark or 458 nm irradiation", "format": "cell-based, human", "settings": "for GI50: 72 h, MTT", "description": "as §1, §2, §3"}, "HeLa cervix cancer cells": {"test_system": "HeLa cervix cancer cells", "assay": "MTT cell viability, 72 h, dark or 458 nm irradiation", "format": "cell-based, human", "settings": "for GI50: 72 h, MTT", "description": "as §1, §2, §3"}, "[3]": {"test_system": "panel of five cancer cell lines (T24, PC-3, MCF7, A549, HeLa)", "assay": "MTT cell viability, 72 h, pooled over the cancer cell panel", "format": "cell-based, human", "description": "as §1, §2, §3"}, "MC3T3 osteoblasts": {"test_system": "MC3T3 osteoblasts", "assay": "MTT cell viability, 72 h, dark or 458 nm irradiation", "format": "cell-based, murine", "description": "as §1, §2, §3"}, "NIH-3T3 fibroblasts": {"test_system": "NIH-3T3 fibroblasts", "assay": "MTT cell viability, 72 h, dark or 458 nm irradiation", "format": "cell-based, murine", "settings": "for GI50: 72 h, MTT", "description": "as §1, §2, §3"}, "NIH3T3": {"test_system": "NIH3T3", "assay": "MTT cytotoxicity, 48 h", "format": "cell-based, murine", "description": "(§4) The in vitro cytotoxicity of iridium(III) complexes 4a–4g was first evaluated against cancer cell lines PC-3 (human prostate) and T24 (human bladder) and the non-cancerous NIH-3T3 cell line (murine fibroblasts) using colorimetric MTT tests after 48 h of treatment. The dimeric iridium precursor [IrCl(ppy)2]2 was used as reference and the results are summarized in Table S1 (Supplementary Materials) in the supporting information file. […] The complexes were also evaluated for their cytotoxicity towards healthy NIH-3T3 cells, giving access to the selectivity index (SI). […] No linear correlation between lipophilicity and anti-cancer activity was found for the iridium(III) complexes 4a–4g. For the following biological studies, we focused on the C1 series.\n(§5) Table S1. Cytotoxic activity of iridium(III) NHC complexes 4a−4g expressed as GI50 (μM) values towards selected cancer and normal cell lines as determined by MTT assay (48 h).a Complex PC-3 T24 NIH3T3 SI (PC-3) SI (T24) […]\n(§6) a GI50 values correspond to the concentration of complexes causing 50 % inhibition of cell growth.\n(§7) Data were obtained from three independent experiments.\n(§8) The cytotoxic effects of the NHC precursors, the imidazolium salts, which represents the potential hydrolysis and/or degradation products of the complexes, have been published before [SI-1, SI-2]. […]"}, "T24": {"test_system": "T24", "assay": "MTT cytotoxicity, 48 h", "format": "cell-based, human", "description": "as §4, §5, §6, §7, §8"}, "PC-3": {"test_system": "PC-3", "assay": "MTT cytotoxicity, 48 h", "format": "cell-based, human", "description": "as §4, §5, §6, §7, §8"}, "[4]": {"settings": "GI50 non-irradiated / GI50 irradiated"}}, "note": "Read-outs that look alike come from different tables or passages of the source.", "data": [{"smiles": "CSc1ccc(-[n+]2ccn3[c]2[Ir-3]24([c]5ccccc5-c5cccc[n+]52)([c]2ccccc2-c2cccc[n+]24)[c]2n(cc[n+]2-c2ccc(SC)cc2)C3)cc1.F[P-](F)(F)(F)(F)F", "note": "[Complex 4d]", "values": [{"measurement": "GI50", "setting": "[1]; 458 nm irradiation 10 min, read-out: GI50 MCF7 Blue", "value": 117, "unit": "nM"}, {"measurement": "PI MCF7", "setting": "[1]; [4]", "value": 3.1}, {"measurement": "SI vs MC3T3, MCF7 Blue", "setting": "[1]; blue light, GI50 MC3T3 / GI50 MCF7", "value": 15.4}, {"measurement": "SI vs NIH, MCF7 Blue", "setting": "[1]; blue light, GI50 NIH-3T3 / GI50 MCF7", "value": 23.8}, {"measurement": "GI50", "setting": "[1]; dark, read-out: GI50 MCF7 Dark", "value": 365, "unit": "nM"}, {"measurement": "SI vs MC3T3, MCF7 Dark", "setting": "[1]; dark, GI50 MC3T3 / GI50 MCF7", "value": 5.7}, {"measurement": "SI vs NIH, MCF7 Dark", "setting": "[1]; dark, GI50 NIH-3T3 / GI50 MCF7", "value": 6.4}, {"measurement": "GI50", "setting": "A549 lung cancer cells; 458 nm irradiation 10 min, read-out: GI50 A549 Blue", "value": 617, "unit": "nM"}, {"measurement": "PI A549", "setting": "A549 lung cancer cells; [4]", "value": 2.4}, {"measurement": "SI vs MC3T3, A549 Blue", "setting": "A549 lung cancer cells; blue light, GI50 MC3T3 / GI50 A549", "value": 2.9}, {"measurement": "SI vs NIH, A549 Blue", "setting": "A549 lung cancer cells; blue light, GI50 NIH-3T3 / GI50 A549", "value": 4.5}, {"measurement": "GI50", "setting": "A549 lung cancer cells; dark, read-out: GI50 A549 Dark", "value": 1510, "unit": "nM"}, {"measurement": "SI vs MC3T3, A549 Dark", "setting": "A549 lung cancer cells; dark, GI50 MC3T3 / GI50 A549", "value": 1.4}, {"measurement": "SI vs NIH, A549 Dark", "setting": "A549 lung cancer cells; dark, GI50 NIH-3T3 / GI50 A549", "value": 1.5}, {"measurement": "GI50", "setting": "T24 bladder cancer cells; 458 nm irradiation 10 min, read-out: GI50 T24 Blue", "value": 165, "unit": "nM"}, {"measurement": "PI T24", "setting": "T24 bladder cancer cells; [4]", "value": 3.0}, {"measurement": "SI vs MC3T3, T24 Blue", "setting": "T24 bladder cancer cells; blue light, GI50 MC3T3 / GI50 T24", "value": 10.9}, {"measurement": "SI vs NIH, T24 Blue", "setting": "T24 bladder cancer cells; blue light, GI50 NIH-3T3 / GI50 T24", "value": 16.8}, {"measurement": "GI50", "setting": "T24 bladder cancer cells; dark, read-out: GI50 T24 Dark", "value": 501, "unit": "nM"}, {"measurement": "SI vs MC3T3, T24 Dark", "setting": "T24 bladder cancer cells; dark, GI50 MC3T3 / GI50 T24", "value": 4.2}, {"measurement": "SI vs NIH, T24 Dark", "setting": "T24 bladder cancer cells; dark, GI50 NIH-3T3 / GI50 T24", "value": 4.7}, {"measurement": "GI50", "setting": "[2]; 458 nm irradiation 10 min, read-out: GI50 PC-3 Blue", "value": 157, "unit": "nM"}, {"measurement": "PI PC-3", "setting": "[2]; [4]", "value": 3.2}, {"measurement": "SI vs MC3T3, PC-3 Blue", "setting": "[2]; blue light, GI50 MC3T3 / GI50 PC-3", "value": 11.5}, {"measurement": "SI vs NIH, PC-3 Blue", "setting": "[2]; blue light, GI50 NIH-3T3 / GI50 PC-3", "value": 17.7}, {"measurement": "GI50", "setting": "[2]; dark, read-out: GI50 PC-3 Dark", "value": 509, "unit": "nM"}, {"measurement": "SI vs MC3T3, PC-3 Dark", "setting": "[2]; dark, GI50 MC3T3 / GI50 PC-3", "value": 4.1}, {"measurement": "SI vs NIH, PC-3 Dark", "setting": "[2]; dark, GI50 NIH-3T3 / GI50 PC-3", "value": 4.6}, {"measurement": "GI50", "setting": "HeLa cervix cancer cells; 458 nm irradiation 10 min, read-out: GI50 HeLa Blue", "value": 817, "unit": "nM"}, {"measurement": "PI HeLa", "setting": "HeLa cervix cancer cells; [4]", "value": 1.9}, {"measurement": "SI vs MC3T3, HeLa Blue", "setting": "HeLa cervix cancer cells; blue light, GI50 MC3T3 / GI50 HeLa", "value": 2.2}, {"measurement": "SI vs NIH, HeLa Blue", "setting": "HeLa cervix cancer cells; blue light, GI50 NIH-3T3 / GI50 HeLa", "value": 3.4}, {"measurement": "GI50", "setting": "HeLa cervix cancer cells; dark, read-out: GI50 HeLa Dark", "value": 1540, "unit": "nM"}, {"measurement": "SI vs MC3T3, HeLa Dark", "setting": "HeLa cervix cancer cells; dark, GI50 MC3T3 / GI50 HeLa", "value": 1.4}, {"measurement": "SI vs NIH, HeLa Dark", "setting": "HeLa cervix cancer cells; dark, GI50 NIH-3T3 / GI50 HeLa", "value": 1.5}, {"measurement": "Average SI vs MC3T3, Blue light", "setting": "[3]; GI50 MC3T3 / GI50 of all irradiated cancer cell lines", "value": 8.6}, {"measurement": "Average SI vs NIH, Blue light", "setting": "[3]; GI50 NIH-3T3 / GI50 of all irradiated cancer cell lines", "value": 13.2}, {"measurement": "GI50", "setting": "MC3T3 osteoblasts; 458 nm irradiation 10 min, read-out: GI50 MC3T3 Blue", "value": 1800, "unit": "nM"}, {"measurement": "GI50", "setting": "MC3T3 osteoblasts; dark, read-out: GI50 MC3T3 Dark", "value": 2080, "unit": "nM"}, {"measurement": "GI50", "setting": "NIH-3T3 fibroblasts; 458 nm irradiation 10 min, read-out: GI50 NIH-3T3 Blue", "value": 2780, "unit": "nM"}, {"measurement": "PI NIH-3T3", "setting": "NIH-3T3 fibroblasts; [4]", "value": 0.8}, {"measurement": "GI50", "setting": "NIH-3T3 fibroblasts; dark, read-out: GI50 NIH-3T3 Dark", "value": 2330, "unit": "nM"}, {"measurement": "GI50", "setting": "NIH3T3", "value": 8500, "unit": "nM"}, {"measurement": "GI50", "setting": "T24; MTT", "value": 950, "unit": "nM"}, {"measurement": "SI (T24)", "setting": "T24; NIH3T3 vs T24", "value": 8.9}, {"measurement": "GI50", "setting": "PC-3; MTT", "value": 710, "unit": "nM"}, {"measurement": "SI (PC-3)", "setting": "PC-3; NIH3T3 vs PC-3", "value": 12.0}]}]}
